Test results taken from publication PMC9045243, “Gluconate Kinase Is Required for Gluconate Assimilation and Sporulation in Cryptococcus neoformans” (Microbiology Spectrum, 2022).

Columns and labels:
[1] = molecular target: T1, CnGnk1 (Gnk1, Gnk1p; formerly IRK3) (Cryptococcus neoformans, UniProt J9VGW6); experiment: 6PGDH-coupled NADPH absorbance at […] nm; assay type: biochemical; conditions: 1 mM MgCl2, 500 uM NADP+, pH 7.5, 37 C
T1 construct: gene CNAG_03048
T1 sequence (J9VGW6 1-230): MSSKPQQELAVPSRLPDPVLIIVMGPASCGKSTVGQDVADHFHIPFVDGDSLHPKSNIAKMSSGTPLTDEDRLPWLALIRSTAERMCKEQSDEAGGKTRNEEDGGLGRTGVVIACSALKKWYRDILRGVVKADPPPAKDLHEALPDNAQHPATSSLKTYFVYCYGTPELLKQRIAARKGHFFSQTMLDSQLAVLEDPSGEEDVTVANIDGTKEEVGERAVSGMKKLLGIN

[2] = molecular target: T1, CnGnk1 (Gnk1, Gnk1p; formerly IRK3); experiment: competition against gluconate, 6PGDH-coupled NADPH absorbance at […] nm; assay type: biochemical; conditions: 0.5 mM gluconate, competing sugar 10 mM

| SMILES | % reduction in activity at 10 mM [2] | also measured |
| --- | --- | --- |
| O=C(O)[C@H](O)[C@@H](O)[C@H](O)[C@H](O)CO [gluconate] |  | KM (apparent) ([1]; 10 mM ATP): 3.7, 95% CI (2.7, 5.2) mM |
| OC[C@H]1OC(O)[C@H](O)[C@@H](O)[C@H]1O (some centres unmarked) [galactose] | ~ 20% |  |
| OC[C@@H](O)[C@@H](O)[C@H](O)[C@H](O)CO [mannitol] | ~ 20% |  |
| Nc1ncnc2c1ncn2[C@@H]1O[C@H](COP(=O)(O)OP(=O)(O)OP(=O)(O)O)[C@@H](O)[C@H]1O [ATP] |  | KM (apparent) ([1]; 10 mM gluconate): 2.6, 95% CI (1.9, 3.7) mM |
| OC[C@H]1OC(O)[C@H](O)[C@@H](O)[C@@H]1O (some centres unmarked) [glucose] | ~ 40% |  |
